In patent publication US20260337245A1, “POLYPEPTIDE OR ANALOG THEREOF AND USE THEREOF” (Shenzhen Bay Laboratory, priority 2024, published 2026) one finds EC50 data, which are given here for six compounds.

Each structure is given as a SMILES string. Starred links: 1 amine or outer side, 2 acyl side, 3 side chain; linkers in the order of their positions; H or OH if unused. Positions of bridges follow the written chain, without caps; N, C: chain ends. Non-standard residues stand in square brackets, D forms with d. Residues, ends and D or L forms follow the SMILES beside them. X1 = O=C(O)CCCCCCCCCCCCCCCCCCC(=O)N[C@@H](CCCCNC(=O)COCCOCCNC(=O)COCCOCCNC(=O)CCC(=O)N(CCNC(=O)C[*:1])CCNC(=O)C[*:2])C(=O)O; NMeR = CN[C@@H](CCCNC(=N)N)C(=O)O; Hyp = O=C(O)[C@@H]1C[C@@H](O)CN1; αMeF = C[C@](N)(Cc1ccccc1)C(=O)O; αMeL = CC(C)C[C@](C)(N)C(=O)O; Orn = NCCC[C@H](N)C(=O)O; Aib = CC(C)(N)C(=O)O

One assay concerns the target T1, AMY3R (Homo sapiens, UniProt P30988).
T1 construct: expressed in transfected cells
T1 sequence (P30988 25-474): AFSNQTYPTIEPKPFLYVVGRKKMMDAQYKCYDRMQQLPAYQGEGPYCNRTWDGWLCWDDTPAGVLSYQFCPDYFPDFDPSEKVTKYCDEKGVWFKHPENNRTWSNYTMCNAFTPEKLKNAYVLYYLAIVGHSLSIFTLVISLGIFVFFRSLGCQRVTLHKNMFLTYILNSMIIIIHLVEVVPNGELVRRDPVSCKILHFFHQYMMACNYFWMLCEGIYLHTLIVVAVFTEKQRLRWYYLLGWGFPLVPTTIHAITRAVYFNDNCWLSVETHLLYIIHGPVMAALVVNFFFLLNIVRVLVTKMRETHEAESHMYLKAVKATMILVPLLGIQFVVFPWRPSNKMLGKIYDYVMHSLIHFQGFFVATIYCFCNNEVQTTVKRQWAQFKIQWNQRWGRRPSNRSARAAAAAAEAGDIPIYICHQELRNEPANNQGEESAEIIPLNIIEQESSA
T1 sequence (O60896 24-148 partner): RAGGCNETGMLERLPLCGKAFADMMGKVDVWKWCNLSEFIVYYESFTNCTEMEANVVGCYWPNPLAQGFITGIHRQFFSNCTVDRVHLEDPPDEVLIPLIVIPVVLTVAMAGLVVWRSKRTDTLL
The assay can be described thus: HTRF cAMP assay, AMY3R. In kind it is cell-based. As to conditions: HEK293/pGM-CREB-L-Luc/AMY3R pool, read-out: IC50 of receptor AMY3R. The text has this: (§1) 2. The polypeptide derivatives prepared in Example 1 and Example 2 of the present disclosure can bind to the target AMYR and CTR receptors on the cell membrane, activate the receptors and release cAMP. Therefore, the activity of the analyte can be determined by using an HTRF (homogeneous time-resolved fluorescence) method and using a cAMP detection kit. The specific steps were as follows:
(§2) A stable transfected cell line of HEK293/pGM-CREB-L-Luc/AMY3R pool and HEK293/pGM-CREB-L-Luc/CTR pool was constructed. The polypeptide derivatives (i.e., AMY-001 to AMY-041) prepared in Examples 1 and 2 were subjected to 5-fold serial dilution from a maximum of 1000 nM to prepare a dilution series containing 8 to 11 concentration gradients. Cagrilintide and sCT were selected as positive controls for testing, and a dilution series was prepared according to the same method for testing. The test cell lines were selected and treated with cAMP-specific trypsin for digestion, and then suspended with 3 mL of serum-free DMEM medium by pipetting, and the cells were counted. 5 μL of IBMX (prepared with serum-free DMEM medium, 0.5 mM) and test cells (5 μL/7500 cells/well) were sequentially added to a 384-well plate, incubated under the conditions of 37° C., 5% CO2 for 30 minutes, then added with cAMP-d2 (5 μL, 1×) and Anti-cAMP-Cryptate (5 μL, 1×) and placed at room temperature for 1 hour. A HTRF value was determined by a chemiluminescence microplate reader, and the results were recorded. An activation curve was plotted using GraphPad Prism software to calculate an IC50 value of each polypeptide derivative. […] The IC50 values of some polypeptides were exemplarily shown in this example, see Table 3, FIG. 2 and FIG. 3 for details.

In the next assay the target is T2, CTR (Homo sapiens, UniProt P30988).
T2 construct: expressed in transfected cells
T2 sequence (P30988 25-474): T1 sequence (P30988 25-474)
The assay can be described thus: HTRF cAMP assay, CTR. It is filed as cell-based. The conditions noted are these: HEK293/pGM-CREB-L-Luc/CTR pool, read-out: IC50 of receptor CTR.
Text: as §1, §2
(Time-resolved FRET reads energy transfer from a long-lived donor to a nearby acceptor.)

In the case of `CC[C@H](C)[C@H](NC(=O)[C@@H]1CCCN1C(=O)CNC(=O)[C@H](Cc1ccccc1)NC(=O)[C@H](CC(N)=O)NC(=O)[C@H](CC(N)=O)NC(=O)[C@H](CO)NC(=O)[C@H](CO)NC(=O)[C@H](Cc1c[nH]cn1)NC(=O)[C@H](CCCNC(=N)N)NC(=O)[C@H](CC(C)C)NC(=O)[C@H](Cc1ccccc1)NC(=O)[C@H](CCC(=O)O)NC(=O)[C@H](C)NC(=O)[C@H](CC(C)C)NC(=O)[C@H](CCCNC(=N)N)NC(=O)[C@H](CCC(N)=O)NC(=O)[C@@H](NC(=O)[C@H](C)NC(=O)[C@@H]1CSSC[C@H](NC(=O)[C@H](CCCCN)NC(=O)CC[C@H](NC(=O)CCCCCCCCCCCCCCCCCCC(=O)O)C(=O)O)C(=O)N[C@@H](CC(N)=O)C(=O)N[C@@H]([C@@H](C)O)C(=O)N[C@@H](C)C(=O)N[C@@H]([C@@H](C)O)C(=O)N1)[C@@H](C)O)C(=O)N[C@@H](CC(C)C)C(=O)N1CCC[C@H]1C(=O)N1CCC[C@H]1C(=O)N[C@H](C(=O)N[C@@H](CC(N)=O)C(=O)N[C@H](C(=O)NCC(=O)N[C@@H](CO)C(=O)N[C@@H](CC(N)=O)C(=O)N[C@H](C(=O)N1CCC[C@H]1C(N)=O)[C@@H](C)O)C(C)C)[C@@H](C)O` [Cagrilintide, reference compound], the EC50 at AMY3R worked out at 12.3 pM. Take `CC(=O)N[C@@H](C)C(=O)N[C@@H](CO)C(=O)N[C@@H](Cc1c[nH]cn1)C(=O)N[C@@H](CC(C)C)C(=O)N[C@@H](CO)C(=O)N[C@H](C(=O)N[C@@H](C)C(=O)N[C@H]1CSCC(=O)NCCN(C(=O)CCC(=O)NCCOCCOCC(=O)NCCOCCOCC(=O)NCCCC[C@H](NC(=O)CCCCCCCCCCCCCCCCCCC(=O)O)C(=O)O)CCNC(=O)CSC[C@@H](C(=O)N[C@@H](CC(C)C)C(=O)N[C@@H](Cc2c[nH]cn2)C(=O)N[C@@H](CCCN)C(=O)N[C@@H](CC(C)C)C(=O)NC(C)(C)C(=O)N[C@@H](CC(=O)O)C(=O)N[C@@](C)(Cc2ccccc2)C(=O)N2CCC[C@H]2C(=O)N[C@@H](CCCNC(=N)N)C(=O)N[C@H](C(=O)N[C@@H](CC(=O)O)C(=O)N[C@H](C(=O)NCC(=O)N[C@@H](C)C(=O)NCC(=O)N[C@@H](CO)C(=O)N2C[C@H](O)C[C@H]2C(N)=O)C(C)C)[C@@H](C)O)NC(=O)[C@H](C)NC(=O)[C@H](CO)NC(=O)[C@H](CC(C)C)NC(=O)[C@H](CCCNC(=N)N)NC(=O)CNC(=O)[C@H](CC(C)C)NC1=O)[C@@H](C)O` [AMY-009, Ac-ASHLSTACLGRLSACLH-Orn-L-Aib-D-(αMeF)-PRTDVGAGS-Hyp-NH2] (Ac-ASHLSTACLGRLSACLH[Orn]L[Aib]D[αMeF]PRTDVGAGS[Hyp]-NH2; linker 8-15 via X1): the values for the EC50 on AMY3R and on CTR were 41.4 pM and 89.4 pM, respectively. In the same order, the values of `CC(=O)N[C@@H](C)C(=O)N[C@@H](CO)C(=O)N[C@@H](Cc1c[nH]cn1)C(=O)N[C@@H](CC(C)C)C(=O)N[C@@H](CO)C(=O)N[C@H](C(=O)N[C@@H](C)C(=O)N[C@H](C(=O)N[C@@H](CC(C)C)C(=O)NCC(=O)N[C@H]1CSCC(=O)NCCN(C(=O)CCC(=O)NCCOCCOCC(=O)NCCOCCOCC(=O)NCCCC[C@H](NC(=O)CCCCCCCCCCCCCCCCCCC(=O)O)C(=O)O)CCNC(=O)CSC[C@@H](C(=O)N[C@@H](CC(C)C)C(=O)NC(C)(C)C(=O)N[C@@H](CC(=O)O)C(=O)N[C@@H](Cc2ccc(O)cc2)C(=O)N2CCC[C@H]2C(=O)N[C@@H](CCCNC(=N)N)C(=O)N[C@H](C(=O)N[C@@H](CC(=O)O)C(=O)N[C@H](C(=O)NCC(=O)N[C@@H](C)C(=O)NCC(=O)N[C@@H](CO)C(=O)N2CCC[C@H]2C(N)=O)C(C)C)[C@@H](C)O)NC(=O)[C@H](Cc2c[nH]cn2)NC(=O)[C@H](CC(C)C)NC(=O)[C@H](CCC(=O)O)NC(=O)[C@H](C)NC(=O)[C@H](CO)NC(=O)[C@H](CC(C)C)NC1=O)C(C)C)[C@@H](C)O` [AMY-006, Ac-ASHLSTAVLGCLSAELHCL-Aib-DYPRTDVGAGSP-NH2] (Ac-ASHLSTAVLGCLSAELHCL[Aib]DYPRTDVGAGSP-NH2; linker 11-18 via X1) are 25.4 pM and 10.7 pM. Taken in the same sequence, the figures for `CC(=O)N[C@@H](C)C(=O)N[C@@H](CO)C(=O)N[C@@H](Cc1c[nH]cn1)C(=O)N[C@@H](CC(C)C)C(=O)N[C@@H](CO)C(=O)N[C@H](C(=O)N[C@@H](C)C(=O)N[C@H]1CCCCNC(=O)CN(C(=O)CCCNC(=O)COCCOCCNC(=O)COCCOCCNC(=O)CC[C@H](NC(=O)CCCCCCCCCCCCCCCCCCC(=O)O)C(=O)O)CC(=O)NCCCC[C@@H](C(=O)N[C@@H](CC(C)C)C(=O)N[C@@H](Cc2c[nH]cn2)C(=O)N[C@@](C)(CCCCN)C(=O)N[C@@H](CC(C)C)C(=O)NC(C)(C)C(=O)N[C@@H](CC(=O)O)C(=O)N[C@@H](Cc2ccc(O)cc2)C(=O)N2CCC[C@H]2C(=O)N[C@@H](CCC(N)=O)C(=O)N[C@H](C(=O)N[C@@H](CC(=O)O)C(=O)N[C@H](C(=O)NCC(=O)N[C@@H](C)C(=O)NCC(=O)N[C@@H](CO)C(=O)N2C[C@H](O)C[C@H]2C(N)=O)C(C)C)[C@@H](C)O)NC(=O)[C@H](C)NC(=O)[C@H](CO)NC(=O)[C@H](CC(C)C)NC(=O)[C@H](CCCNC(=N)N)NC(=O)CNC(=O)[C@H](CC(C)C)NC1=O)[C@@H](C)O` [AMY-021, Ac-ASHLSTAKLGRLSAKLH-(αMeK)-L-Aib-DYPQTDVGAGS-Hyp-NH2] were 4.4 pM and 1.2 pM. In the same order, the values of `CC(=O)N[C@@H](C)C(=O)N[C@@H](CO)C(=O)N[C@@H](Cc1c[nH]cn1)C(=O)N[C@@](C)(CC(C)C)C(=O)N[C@@H](CO)C(=O)N[C@H](C(=O)N[C@@H](C)C(=O)N[C@H]1CSCC(=O)NCCN(C(=O)CCC(=O)NCCOCCOCC(=O)NCCOCCOCC(=O)NCCCC[C@H](NC(=O)CCCCCCCCCCCCCCCCCCC(=O)O)C(=O)O)CCNC(=O)CSC[C@@H](C(=O)N[C@@H](CC(C)C)C(=O)N[C@@H](Cc2c[nH]cn2)C(=O)N[C@@H](CCCCN)C(=O)N[C@@H](CC(C)C)C(=O)NC(C)(C)C(=O)N[C@@H](CC(=O)O)C(=O)N[C@@](C)(Cc2ccccc2)C(=O)N2CCC[C@H]2C(=O)N(C)[C@@H](CCCNC(=N)N)C(=O)N[C@H](C(=O)N[C@@H](CC(=O)O)C(=O)N[C@H](C(=O)NCC(=O)N[C@@H](C)C(=O)NCC(=O)N[C@@H](CO)C(=O)N2CCC[C@H]2C(N)=O)C(C)C)[C@@H](C)O)NC(=O)[C@H](C)NC(=O)[C@H](CO)NC(=O)[C@H](CC(C)C)NC(=O)[C@H](CCCNC(=N)N)NC(=O)CNC(=O)[C@H](CC(C)C)NC1=O)[C@@H](C)O` [AMY-010, Ac-ASH-(aMeK)-STACLGRLSACLHKL-Aib-D-(αMeF)-P-(N-Me-R)-TDVGAGSP-NH2] (Ac-ASH[αMeL]STACLGRLSACLHKL[Aib]D[αMeF]P[NMeR]TDVGAGSP-NH2; linker 8-15 via X1) are 52.3 pM and 41.5 pM. Consider `CC(=O)N[C@@H](C)C(=O)N[C@@H](CO)C(=O)N[C@@H](Cc1c[nH]cn1)C(=O)N[C@@H](CC(C)C)C(=O)N[C@@H](CO)C(=O)N[C@H](C(=O)N[C@@H](C)C(=O)N[C@H](C(=O)N[C@@H](CC(C)C)C(=O)N[C@H]1CSCC(=O)NCCN(C(=O)CCC(=O)NCCOCCOCC(=O)NCCOCCOCC(=O)NCCCC[C@H](NC(=O)CCCCCCCCCCCCCCCCCCC(=O)O)C(=O)O)CCNC(=O)CSC[C@@H](C(=O)N[C@@H](CCCCN)C(=O)N[C@@H](CC(C)C)C(=O)NC(C)(C)C(=O)N[C@@H](CC(=O)O)C(=O)N[C@@H](Cc2ccc(O)cc2)C(=O)N2CCC[C@H]2C(=O)N[C@@H](CCCNC(=N)N)C(=O)N[C@H](C(=O)N[C@@H](CC(=O)O)C(=O)N[C@H](C(=O)NCC(=O)N[C@@H](C)C(=O)NCC(=O)N[C@@H](CO)C(=O)N2CCC[C@H]2C(N)=O)C(C)C)[C@@H](C)O)NC(=O)[C@H](CC(C)C)NC(=O)[C@H](CCC(=O)O)NC(=O)[C@H](C)NC(=O)[C@H](CO)NC(=O)[C@H](CC(C)C)NC(=O)[C@H](CCCNC(=N)N)NC1=O)C(C)C)[C@@H](C)O` [AMY-005, Ac-ASHLSTAVLCRLSAELCKL-Aib-DYPRTDVGAGSP-NH2] (Ac-ASHLSTAVLCRLSAELCKL[Aib]DYPRTDVGAGSP-NH2; linker 10-17 via X1), for which the EC50 on AMY3R was 198 pM; at CTR, 303 pM.
